Each molecule was assayed against integrin α2β1 (Homo sapiens, UniProt P05556+P17301) (assay: HT 1080 cell adhesion assay on rat tail collagen I). Conditions: HT1080 (human fibrosarcoma) cells on rat tail collagen I, absorbance at 595 nm, triplicate; read-out: IC50s from HT 1080 Cell adhesion assay.
Assay type: cell-based
Parameters: HT1080 (human fibrosarcoma) cells (or human airway smooth muscle cells) were detached and resuspended in serum-free DMEM; endogenous in cells; host or cells: HT1080 human fibrosarcoma cells
Experimental: Cell adhesion Assay: Ninety-six-well flat-bottomed tissue culture plates were coated with rat tail collagen I for 1 hour at 37° C. After incubation, wells were blocked with 1% BSA at 37° C. for 1 hour. Control wells were filled with 1% BSA. HT1080 (human fibrosarcoma) cells (or human airway smooth muscle cells) were detached and resuspended in serum-free DMEM. Cells were incubated with anti-integrin alpha2 antibody control or 10-fold dilutions of each compound with a starting concentration of 10 uM for 15 minutes at 4° C. before plating. The plates were centrifuged at 10 g for 5 minutes before incubation for 1 hour at 37° C. in humidified 5% CO2. Nonadherent cells were removed by centrifugation (top side down) at 10 g for 5 minutes. Attached cells were stained with 0.5% crystal violet, and the wells were washed with PBS. The relative number of cells in each well was evaluated after solubilization in 40 μl of 2% Triton X-100 by measuring absorbance at 595 nm in a microplate reader. All determinations were carried out in triplicate.

integrin α2β1, sequence (P17301 30-1181): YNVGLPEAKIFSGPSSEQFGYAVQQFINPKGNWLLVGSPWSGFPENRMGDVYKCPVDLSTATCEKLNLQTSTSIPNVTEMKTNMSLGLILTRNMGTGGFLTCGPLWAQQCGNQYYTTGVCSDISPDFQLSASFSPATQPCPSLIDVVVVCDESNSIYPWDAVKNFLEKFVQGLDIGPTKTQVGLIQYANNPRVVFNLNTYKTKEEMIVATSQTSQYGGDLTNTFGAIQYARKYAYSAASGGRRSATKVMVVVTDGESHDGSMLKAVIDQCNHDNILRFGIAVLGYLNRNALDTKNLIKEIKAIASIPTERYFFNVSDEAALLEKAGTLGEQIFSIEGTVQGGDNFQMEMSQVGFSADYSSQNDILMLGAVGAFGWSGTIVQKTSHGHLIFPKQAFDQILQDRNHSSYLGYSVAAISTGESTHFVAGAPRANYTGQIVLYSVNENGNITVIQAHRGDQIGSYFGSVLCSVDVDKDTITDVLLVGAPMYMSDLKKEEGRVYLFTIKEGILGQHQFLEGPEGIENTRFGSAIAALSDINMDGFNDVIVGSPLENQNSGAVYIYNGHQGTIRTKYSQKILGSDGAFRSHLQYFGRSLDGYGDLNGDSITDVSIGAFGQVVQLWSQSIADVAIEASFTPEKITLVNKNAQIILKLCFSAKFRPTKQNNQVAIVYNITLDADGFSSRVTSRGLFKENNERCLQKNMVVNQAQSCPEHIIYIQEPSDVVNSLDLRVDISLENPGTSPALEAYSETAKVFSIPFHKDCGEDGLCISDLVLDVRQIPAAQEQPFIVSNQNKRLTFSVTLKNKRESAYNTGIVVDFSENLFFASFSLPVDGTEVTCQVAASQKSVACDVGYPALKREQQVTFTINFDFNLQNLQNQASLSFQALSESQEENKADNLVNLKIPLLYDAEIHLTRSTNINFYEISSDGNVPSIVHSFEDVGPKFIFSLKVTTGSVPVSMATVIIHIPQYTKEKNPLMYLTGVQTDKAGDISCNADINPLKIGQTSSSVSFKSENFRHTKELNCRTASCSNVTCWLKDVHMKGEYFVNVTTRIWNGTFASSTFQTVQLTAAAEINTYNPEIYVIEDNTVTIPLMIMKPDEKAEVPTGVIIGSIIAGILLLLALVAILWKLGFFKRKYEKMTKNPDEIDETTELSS
integrin α2β1, sequence (P05556 21-798): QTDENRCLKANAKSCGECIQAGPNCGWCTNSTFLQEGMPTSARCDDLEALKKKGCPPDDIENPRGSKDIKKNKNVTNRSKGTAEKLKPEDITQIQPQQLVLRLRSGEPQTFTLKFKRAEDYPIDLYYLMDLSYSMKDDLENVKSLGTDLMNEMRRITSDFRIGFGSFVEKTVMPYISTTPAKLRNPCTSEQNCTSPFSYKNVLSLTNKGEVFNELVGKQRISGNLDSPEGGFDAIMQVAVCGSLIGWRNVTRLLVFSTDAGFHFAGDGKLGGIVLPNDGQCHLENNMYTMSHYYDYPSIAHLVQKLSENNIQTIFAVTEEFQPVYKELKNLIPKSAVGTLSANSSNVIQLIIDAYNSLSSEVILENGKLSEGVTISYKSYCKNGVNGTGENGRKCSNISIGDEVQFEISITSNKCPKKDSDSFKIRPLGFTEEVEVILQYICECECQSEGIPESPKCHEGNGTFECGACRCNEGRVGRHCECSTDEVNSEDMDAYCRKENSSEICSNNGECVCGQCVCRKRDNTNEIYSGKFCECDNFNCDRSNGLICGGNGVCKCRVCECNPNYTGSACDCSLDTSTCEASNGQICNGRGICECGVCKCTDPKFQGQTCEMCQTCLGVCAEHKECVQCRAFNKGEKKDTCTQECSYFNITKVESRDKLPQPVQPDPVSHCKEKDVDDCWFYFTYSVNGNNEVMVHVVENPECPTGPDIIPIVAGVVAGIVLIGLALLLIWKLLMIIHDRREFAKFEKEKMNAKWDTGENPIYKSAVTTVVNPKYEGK

IC50 [µM] | Structure (SMILES)
10 to 100 | O=C(NCc1ccsc1)NC[C@H](NC(=O)c1c(Cl)cccc1Cl)C(=O)O [KZ-1-38, (S)-2-(2,6-dichlorobenzamido)-3-(3-(thiophen-3-ylmethyl)ureido)propanoic acid]
10 to 100 | CC(NC(=O)NC[C@H](NC(=O)c1c(Cl)cccc1Cl)C(=O)O)C12CC3CC(CC(O)(C3)C1)C2 (stereo partly drawn) [A2-152, (2S)-2-(2,6-dichlorobenzamido)-3-(3-(1-(3-hydroxyadamantan-1-yl)ethyl)ureido)propanoic acid]
10 to 100 | Cc1cccc(Cl)c1C(=O)N[C@@H](CNC(=O)NCc1ccccc1)C(=O)O [A2-35, (S)-3-(3-benzylureido)-2-(2-chloro-6-methylbenzamido)propanoic acid]
> 100 | CN(C)C(=O)NC[C@H](NC(=O)c1c(Cl)cccc1Cl)C(=O)O [A2-70, (S)-2-(2,6-dichlorobenzamido)-3-(3,3-dimethylureido)propanoic acid]
> 100 | O=C(NCc1cc(F)cc(F)c1)NC[C@H](NC(=O)c1c(Cl)cccc1Cl)C(=O)O [KZ-1-32, (S)-2-(2,6-dichlorobenzamido)-3-(3-(3,5-difluorobenzyl)ureido)propanoic acid]
10 to 100 | O=C(NC[C@H](NC(=O)c1c(Cl)cccc1Cl)C(=O)O)NCC12CC3CC(CC(C3)C1)C2 [A2-83]
10 to 100 | O=C(NC[C@H](NC(=O)c1c(Cl)cccc1Cl)C(=O)O)NC12CC3CC(C1)CC(C(=O)O)(C3)C2 [A2-143, 3-(3-((S)-2-carboxy-2-(2,6-dichlorobenzamido)ethyl)ureido)adamantane-1-carboxylic acid]
10 to 100 | O=C(NCc1ccc(Br)cc1)NC[C@H](NC(=O)c1c(Cl)cccc1Cl)C(=O)O [KZ-1-23, (S)-3-(3-(4-bromobenzyl)ureido)-2-(2,6-dichlorobenzamido)propanoic acid]
10 to 100 | CC12CC3CC(C)(C1)CC(NC(=O)NC[C@H](NC(=O)c1c(Cl)cccc1Cl)C(=O)O)(C3)C2 [A2-128, (S)-2-(2,6-dichlorobenzamido)-3-(3-(3,5-dimethyladamantan-1-yl)ureido)propanoic acid]
< 10 | CC1(C)C2CCC1(C)C(NC(=O)NC[C@H](NC(=O)c1c(Cl)cccc1Cl)C(=O)O)C2 (stereo partly drawn) [A2-171, (2S)-2-(2,6-dichlorobenzamido)-3-(3-(1,7,7-trimethylbicyclo[2.2.1]heptan-2-yl)ureido)propanoic acid]
< 10 | O=C(NCC1CCc2ccccc21)NC[C@H](NC(=O)c1c(Cl)cccc1Cl)C(=O)O (stereo partly shown) [A2-123]
10 to 100 | Cc1cc(OC(C)C)cc(C)c1C(=O)N[C@@H](CNC(=O)NCc1ccccc1)C(=O)O [A2-61, (S)-3-(3-benzylureido)-2-(4-isopropoxy-2,6-dimethylbenzamido)propanoic acid]
10 to 100 | O=C(NC[C@H](NC(=O)c1c(Cl)cccc1Cl)C(=O)O)NC1CCC2(CCCCC2)CC1 [A2-179, (S)-2-(2,6-dichlorobenzamido)-3-(3-(spiro[5.5]undecan-3-yl)ureido)propanoic acid]
> 100 | Cc1ccc(CNC(=O)NC[C@H](NC(=O)c2c(Cl)cccc2Cl)C(=O)O)cc1 [KZ-1-9, (S)-2-(2,6-dichlorobenzamido)-3-(3-(4-methylbenzyl)ureido)propanoic acid]
> 100 | O=C(CC1CCCCC1)N[C@@H](CNC(=O)NCc1ccccc1)C(=O)O [A2-64, (S)-3-(3-benzylureido)-2-(2-cyclohexylacetamido)propanoic acid]
> 100 | CC(C)CC(=O)N[C@@H](CNC(=O)NCc1ccccc1)C(=O)O [A2-37, (S)-3-(3-benzylureido)-2-(3-methylbutanamido)propanoic acid]
10 to 100 | CC1(C)C2CCC(CNC(=O)NC[C@H](NC(=O)c3c(Cl)cccc3Cl)C(=O)O)C1C2 (stereo partly shown) [A2-173]
10 to 100 | O=C(NC[C@H](NC(=O)c1c(Cl)cccc1Cl)C(=O)O)NC1CCC2(CC1)C1CC3CC(C1)CC2C3 (stereo partly drawn) [A2-180, (S)-2-(2,6-dichlorobenzamido)-3-(3-(spiro[adamantane-2,1′-cyclohexan]-4′-yl)ureido)propanoic acid]
10 to 100 | O=C(NC[C@H](NC(=O)c1c(Cl)cccc1Cl)C(=O)O)NCC12CC3CC(CC(Cl)(C3)C1)C2 [A2-156, (S)-3-(3-((3-chloroadamantan-1-yl)methyl)ureido)-2-(2,6-dichlorobenzamido)propanoic acid]
10 to 100 | O=C(NC[C@H](NC(=O)c1c(Cl)cccc1Cl)C(=O)O)NC12CC3CC(CC1C3)C2 [A2-145, (2S)-2-(2,6-dichlorobenzamido)-3-(3-(hexahydro-2,5-methanopentalen-3a(1H)-yl)ureido)propanoic acid]

IC50 [µM] | Structure (SMILES)
> 100 | CCCNC(=O)NC[C@H](NC(=O)c1c(Cl)cccc1Cl)C(=O)O [KZ-1-27, (S)-2-(2,6-dichlorobenzamido)-3-(3-propylureido)propanoic acid]
10 to 100 | C[C@@H]1[C@H]2C[C@@H](C[C@H]1NC(=O)NC[C@H](NC(=O)c1c(Cl)cccc1Cl)C(=O)O)C2(C)C [A2-170, (S)-2-(2,6-dichlorobenzamido)-3-(3-((1R,2R,3R,5S)-2,6,6-trimethylbicyclo[3.1.1]heptan-3-yl)ureido)propanoic acid]
> 100 | O=C(NC[C@H](NC(=O)c1c(Cl)cccc1Cl)C(=O)O)Nc1ccccc1 [KZ-1-25, (S)-2-(2,6-dichlorobenzamido)-3-(3-phenylureido)propanoic acid]
> 100 | COc1cccc(OC)c1C(=O)N[C@@H](CNC(=O)NCc1ccccc1)C(=O)O [A2-28, (S)-3-(3-benzylureido)-2-(2,6-dimethoxybenzamido)propanoic acid]
> 100 | O=C(NCc1ccccc1)NC[C@H](NC(=O)C1CCCCC1)C(=O)O [A2-63, (S)-3-(3-benzylureido)-2-(cyclohexanecarboxamido)propanoic acid]
> 100 | O=C(NCc1ccc(Cl)cc1)NC[C@H](NC(=O)c1c(Cl)cccc1Cl)C(=O)O [KZ-1-26, (S)-3-(3-(4-chlorobenzyl)ureido)-2-(2,6-dichlorobenzamido)propanoic acid]
10 to 100 | O=C(NC[C@H](NC(=O)c1c(Cl)cccc1Cl)C(=O)O)NC12CC3CC(CC(C3)C1)C2 [A2-87]
< 10 | O=C(NC[C@H](NC(=O)c1c(Cl)cccc1Cl)C(=O)O)N[C@H]1CCCc2ccccc21 [A2-125, (S)-2-(2,6-dichlorobenzamido)-3-(3-((S)-1,2,3,4-tetrahydronaphthalen-1-yl)ureido)propanoic acid]
> 100 | O=C(N[C@@H](CNc1nccc(-c2ccccc2)n1)C(=O)O)c1c(Cl)cccc1Cl [A2-73, (S)-2-(2,6-dichlorobenzamido)-3-((4-phenylpyrimidin-2-yl)amino)propanoic acid]
< 10 | O=C(NC[C@H](NC(=O)c1c(Cl)cccc1Cl)C(=O)O)N[C@@H]1CCCc2ccccc21 [A2-124, (2S)-2-(2,6-dichlorobenzamido)-3-(3-(1,2,3,4-tetrahydronaphthalen-1-yl)ureido)propanoic acid]
10 to 100 | O=C(N[C@@H](CNC(=S)NCc1ccccc1)C(=O)O)c1c(Cl)cccc1Cl [KZ-1-21, (S)-3-(3-benzylthioureido)-2-(2,6-dichlorobenzamido)propanoic acid]
10 to 100 | Cc1cc(C)c(C(=O)N[C@@H](CNC(=O)NCc2ccccc2)C(=O)O)c(C)c1 [A2-26, (S)-3-(3-benzylureido)-2-(2,4,6-trimethylbenzamido)propanoic acid]
> 100 | O=C(NCc1c(F)cccc1F)NC[C@H](NC(=O)c1c(Cl)cccc1Cl)C(=O)O [KZ-1-33, (S)-2-(2,6-dichlorobenzamido)-3-(3-(2,6-difluorobenzyl)ureido)propanoic acid]
> 100 | O=C(NCc1ccc(C(F)(F)F)cc1)NC[C@H](NC(=O)c1c(Cl)cccc1Cl)C(=O)O [KZ-1-30, (S)-2-(2,6-dichlorobenzamido)-3-(3-(4-(trifluoromethyl)benzyl)ureido)propanoic acid]
> 100 | CC(C)(C)CNC(=O)NC[C@H](NC(=O)c1c(Cl)cccc1Cl)C(=O)O [KZ-1-40, (S)-2-(2,6-dichlorobenzamido)-3-(3-neopentylureido)propanoic acid]
10 to 100 | O=C(NCC1CC2CCC1CC2)NC[C@H](NC(=O)c1c(Cl)cccc1Cl)C(=O)O (stereo partly shown) [A2-175]
10 to 100 | O=C(NCc1cccs1)NC[C@H](NC(=O)c1c(Cl)cccc1Cl)C(=O)O [KZ-1-34, (S)-2-(2,6-dichlorobenzamido)-3-(3-(thiophen-2-ylmethyl)ureido)propanoic acid]
10 to 100 | CCC12CC3CC(C1)CC(NC(=O)NC[C@H](NC(=O)c1c(Cl)cccc1Cl)C(=O)O)(C3)C2 [A2-129, (S)-2-(2,6-dichlorobenzamido)-3-(3-(3-ethyladamantan-1-yl)ureido)propanoic acid]
> 100 | O=C(NC[C@H](NC(=O)c1c(Cl)cccc1Cl)C(=O)O)OCc1ccccc1 [A2-72, (S)-3-(((benzyloxy)carbonyl)amino)-2-(2,6-dichlorobenzamido)propanoic acid]

Structure (SMILES) | IC50 [µM]
CC(C)(C)OC(=O)NC[C@H](NC(=O)c1c(Cl)cccc1Cl)C(=O)O [A2-39, (S)-3-((tert-butoxycarbonyl)amino)-2-(2,6-dichlorobenzamido)propanoic acid] | 10 to 100

Reference: patent US11597727B2 (THE REGENTS OF THE UNIVERSITY OF CALIFORNIA, priority 2018, dated 2023)
